Among the data in US20080221086A1, “Novel Inhibitors of Glutaminyl Cyclase” (PROBIODRUG AG, priority 2006, published 2008) are IC50 values, retold here.

Read-outs that look alike come from different tables or passages of the source.

The target of the assay is hQC (Homo sapiens, UniProt Q16769). Put plainly: Fluorometric assay of glutaminyl cyclase (QC) inhibition, H-Gln-βNA or H-Gln-AMC substrate. In kind it is biochemical. In outline:
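Fluorometric coupled assays at 30° C in Tris/HCl pH 8.0 with EDTA and pyroglutamyl aminopeptidase used either 0.2 mM H-Gln-βNA (320/410 nm) or H-Gln-AMC (380/460 nm), started by QC. Screening used 4 mM inhibitor at substrate 1 KM. Ki came from fitting progress curves to competitive inhibition.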

hQC, sequence (Q16769 29-361): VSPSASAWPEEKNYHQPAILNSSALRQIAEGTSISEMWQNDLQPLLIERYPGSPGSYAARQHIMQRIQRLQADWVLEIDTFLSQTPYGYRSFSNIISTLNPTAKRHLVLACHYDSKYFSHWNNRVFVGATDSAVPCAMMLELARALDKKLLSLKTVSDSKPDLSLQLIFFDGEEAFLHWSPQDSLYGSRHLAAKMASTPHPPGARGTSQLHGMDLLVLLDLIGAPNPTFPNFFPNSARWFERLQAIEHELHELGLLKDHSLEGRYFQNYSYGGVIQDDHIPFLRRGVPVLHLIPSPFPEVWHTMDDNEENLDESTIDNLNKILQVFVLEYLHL

As usually defined, the IC50 is the concentration at which inhibition is half-maximal. Turning to `CC1=CC(C)C(C2/C(=N/C(C)(C)CC(C)(C)C)NC(=S)N2c2ccc3nc[nH]c3c2)CC1` (stereo not shown) [Compound 200, 1-(3H-Benzoimidazol-5-yl)-5-(2,4-dimethyl-cyclohex-3-enyl)-4-1,1,3,3-tetramethyl-butylimino-imidazolidine-2-thione], the concentration for half-maximal inhibition (IC50) (read-out: IC50) amounted to 5.8 µM. As to `CC(/N=C1\NC(=O)N(CCCn2ccnc2)C1c1cccc(F)c1F)c1ccccc1` (stereo not shown) [Compound 9, 5-(2,3-Difluoro-phenyl)-1-(3-imidazol-1-yl-propyl)-4-1-phenyl-ethylimino-imidazolidin-2-one], the IC50 (read-out: IC50) amounted to 6.5 µM. On to `O=C1N/C(=N/Cc2cccnc2)C(c2ccc3ccccc3c2)N1c1ccc2[nH]cnc2c1` (stereo not shown) [Compound 221, 1-(1H-Benzoimidazol-5-yl)-5-naphthalen-2-yl-4-pyridin-3-ylmethylimino-imidazolidin-2-one], for which, where the note is “read-out: IC50”, the concentration for half-maximal inhibition (IC50) was 6.7 µM. Same read-out and setting: under `O=C1N/C(=N\C2CCCC2)C(c2coc3ccccc3c2=O)N1c1ccc2[nH]cnc2c1` (stereo not shown) [Compound 246, 1-(1H-Benzoimidazol-5-yl)-4-cyclopentylimino-5-(4-oxo-4H-chromen-3-yl)-imidazolidin-2-one] stands 7.6 µM; under `O=C1N/C(=N\C(Cc2ccccc2)c2ccccc2)C(c2cccc(Br)c2)N1c1ccc2[nH]cnc2c1` (stereo not shown) [Compound 338, 1-(1H-Benzoimidazol-5-yl)-5-(3-bromo-phenyl)-4-1,2-diphenyl-ethylimino-imidazolidin-2-one], 0.004 µM; under `O=C1N/C(=N/CCCc2ccccc2)C(c2ccc3[nH]ccc3c2)N1c1ccc2[nH]cnc2c1` (stereo not shown) [Compound 224, 1-(1H-Benzoimidazol-5-yl)-5-(1H-indol-5-yl)-4-3-phenyl-propylimino-imidazolidin-2-one], 0.004 µM. On the same count and under the same terms, the result for `O=C1N/C(=N\c2ccc3c(c2)OCCO3)C(c2cccc(F)c2F)N1CCCn1ccnc1` (stereo not shown) [Compound 31, 5-(2,3-Difluoro-phenyl)-4-2,3-dihydro-benzo1,4dioxin-6-ylimino-1-(3-imidazol-1-yl-propyl)-imidazolidin-2-one] reads 9.4 µM; that for `O=C1N/C(=N/CCCc2ccccc2)C(c2c[nH]c3cc(F)ccc23)N1c1ccc2[nH]cnc2c1` (stereo not shown) [Compound 232, 1-(1H-Benzoimidazol-5-yl)-5-(6-fluoro-1H-indol-3-yl)-4-3-phenyl-propylimino-imidazolidin-2-one], 2.2 µM. Same read-out and setting: under `O=C1N/C(=N/CCc2cccs2)C(c2ccccc2)N1CCCn1ccnc1` (stereo not shown) [Compound 38, 1-(3-Imidazol-1-yl-propyl)-5-phenyl-4-2-thiophen-2-yl-ethylimino-imidazolidin-2-one] stands 7.6 µM. Take `O=C1N/C(=N\C2CCCc3ccccc32)C(c2c(F)ccc(Cl)c2F)N1c1ccc2nc[nH]c2c1` (stereo not shown) [Compound 228, 1-(3H-Benzoimidazol-5-yl)-5-(3-chloro-2,6-difluoro-phenyl)-4-1,2,3,4-tetrahydro-naphthalen-1-ylimino-imidazolidin-2-one]: under “read-out: IC50”, the half-inhibitory concentration (IC50) was 0.004 µM. Still for that read-out and setting: the result for `COc1cc(C/N=C2\NC(=O)N(CCCn3ccnc3)C2c2ccccc2Cl)cc(OC)c1OC` (stereo not shown) [Compound 26, 5-(2-Chloro-phenyl)-1-(3-imidazol-1-yl-propyl)-4-3,4,5-trimethoxy-benzylimino-imidazolidin-2-one] reads 6.7 µM. Still for that read-out and setting: under `O=C(CN=C1NC(=O)N(c2ccc3[nH]cnc3c2)C1c1ccc(Cl)c(F)c1)N1CCC(O)C1` (stereo not shown) [Compound 281, 1-(1H-Benzoimidazol-5-yl)-5-(4-chloro-3-fluoro-phenyl)-4-2-(3-hydroxy-pyrrolidin-1-yl)-2-oxo-ethylimino-imidazolidin-2-one] stands 6.7 µM; under `O=C1N/C(=N/Cn2nnc3ccccc32)CN1c1ccc2[nH]cnc2c1` [Compound 325, 1-(1H-Benzoimidazol-5-yl)-4-benzotriazol-1-ylmethylimino-imidazolidin-2-one], 6.7 µM; under `O=C1N/C(=N/CCc2c[nH]c3ccccc23)C(c2ccc[nH]2)N1CCCn1ccnc1` (stereo not shown) [Compound 50, 1-(3-Imidazol-1-yl-propyl)-4-2-(1H-indol-3-yl)-ethylimino-5-(1H-pyrrol-2-yl)-imidazolidin-2-one], 6.7 µM. The same measure, in the same setting: under `Cc1ccc(C2/C(=N/C3CCCCCC3)NC(=O)N2c2ccc3nc[nH]c3c2)c(C)c1` (stereo not shown) [Compound 283, 1-(3H-Benzoimidazol-5-yl)-4-cycloheptylimino-5-(2,4-dimethyl-phenyl)-imidazolidin-2-one] stands 0.4 µM; under `O=C(C/N=C1/NC(=O)N(CCCn2ccnc2)C1c1ccsc1)N1CCc2ccccc2C1` (stereo not shown) [Compound 65, 4-2-(3,4-Dihydro-1H-isoquinolin-2-yl)-2-oxo-ethylimino-1-(3-imidazol-1-yl-propyl)-5-thiophen-3-yl-imidazolidin-2-one], 5.8 µM. `CC1=CC(C)C(C2/C(=N/C(C)C(C)(C)C)NC(=S)N2c2ccc3nc[nH]c3c2)CC1` (stereo not shown) [Compound 276, 1-(1H-Benzoimidazol-5-yl)-5-(2,4-dimethyl-cyclohex-3-enyl)-4-1,2,2-trimethyl-propylimino-imidazolidine-2-thione]: the IC50 (read-out: IC50) worked out at 7.6 µM. Same read-out and setting: under `Cc1ccc(C2/C(=N/C(C)(C)CC(C)(C)C)NC(=O)N2c2ccc3nc[nH]c3c2)cc1` (stereo not shown) [Compound 293, 1-(3H-Benzoimidazol-5-yl)-4,1,1,3,3-tetramethyl-butylimino-5-p-tolyl-imidazolidin-2-one] stands 5.8 µM. Consider `O=C1CCCN1CCC/N=C1/NC(=O)N(c2ccc3[nH]cnc3c2)C1c1ccc(Cl)c(F)c1` (stereo not shown) [Compound 323, 1-(1H-Benzoimidazol-5-yl)-5-(4-chloro-3-fluoro-phenyl)-4-3-(2-oxo-pyrrolidin-1-yl)-propylimino-imidazolidin-2-one], for which the IC50 (read-out: IC50) is 0.4 µM. The same measure, in the same setting: under `C/N=C1/NC(=O)N(c2ccc3[nH]cnc3c2)C1c1c[nH]c2ccc(Cl)cc12` (stereo not shown) [Compound 223, 1-(1H-Benzoimidazol-5-yl)-5-(5-chloro-1H-indol-3-yl)-4-methylimino-imidazolidin-2-one] stands 0.4 µM; under `O=C(C/N=C1/NC(=O)N(c2ccc3[nH]cnc3c2)C1C1=CCCCC1)N1CCSCC1` (stereo not shown) [Compound 265, 1-(1H-Benzoimidazol-5-yl)-5-cyclohex-1-enyl-4-2-oxo-2-thiomorpholin-4-yl-ethylimino-imidazolidin-2-one], 8.5 µM. On to `CC1=CC(C)C(C2C(=NCC(=O)N3CCSCC3)NC(=O)N2c2ccc3[nH]cnc3c2)CC1` (stereo not shown) [Compound 294, 1-(1H-Benzoimidazol-5-yl)-5-(2,4-dimethyl-cyclohex-3-enyl)-4-2-oxo-2-thiomorpholin-4-yl-ethylimino-imidazolidin-2-one], for which the IC50 (read-out: IC50) is 1.3 µM. Same read-out and setting: the result for `Cc1ccc2occ(C3/C(=N/CCCc4ccccc4)NC(=S)N3c3ccc4[nH]cnc4c3)c(=O)c2c1` (stereo not shown) [Compound 313, 3-{3-(1H-Benzoimidazol-5-yl)-5-3-phenyl-propylimino-2-thioxo-imidazolidin-4-yl}-6-methyl-chromen-4-one] reads 3.1 µM. In the case of `O=C1N/C(=N\C2CCCCC2)C(c2c(F)ccc(Cl)c2F)N1c1ccc2[nH]cnc2c1` (stereo not shown) [Compound 220, 1-(1H-Benzoimidazol-5-yl)-5-(3-chloro-2,6-difluoro-phenyl)-4-(cyclohexylimino)-imidazolidin-2-one], the IC50 (compound from preparative synthesis, purified by chromatography, fluorescent assay, read-out: IC50 hQC) is 0.0984 µM and the IC50 (read-out: IC50) came to 0.004 µM.
